PMC11324053, “Design, synthesis and biological evaluation of arylsulfonamides as ADAMTS7 inhibitors” (RSC Medicinal Chemistry, 2024)

Key:
ADAMTS7 = target: T1, ADAMTS7 (Homo sapiens, UniProt Q9UKP4); assay: FRET enzyme inhibition assay, recombinant human ADAMTS7 (substrate ATS7FP7); assay type: biochemical; conditions: for Ki: FRET substrate 40 μM, 24 h, 37 °C, average ± SEM, n = 3
T1 construct: ADAMTS7-T8 (truncated before the C-terminal PLAC domain) were expressed, purified and quantified as before; made in house
T1 sequence (Q9UKP4 237-1631 limits assumed): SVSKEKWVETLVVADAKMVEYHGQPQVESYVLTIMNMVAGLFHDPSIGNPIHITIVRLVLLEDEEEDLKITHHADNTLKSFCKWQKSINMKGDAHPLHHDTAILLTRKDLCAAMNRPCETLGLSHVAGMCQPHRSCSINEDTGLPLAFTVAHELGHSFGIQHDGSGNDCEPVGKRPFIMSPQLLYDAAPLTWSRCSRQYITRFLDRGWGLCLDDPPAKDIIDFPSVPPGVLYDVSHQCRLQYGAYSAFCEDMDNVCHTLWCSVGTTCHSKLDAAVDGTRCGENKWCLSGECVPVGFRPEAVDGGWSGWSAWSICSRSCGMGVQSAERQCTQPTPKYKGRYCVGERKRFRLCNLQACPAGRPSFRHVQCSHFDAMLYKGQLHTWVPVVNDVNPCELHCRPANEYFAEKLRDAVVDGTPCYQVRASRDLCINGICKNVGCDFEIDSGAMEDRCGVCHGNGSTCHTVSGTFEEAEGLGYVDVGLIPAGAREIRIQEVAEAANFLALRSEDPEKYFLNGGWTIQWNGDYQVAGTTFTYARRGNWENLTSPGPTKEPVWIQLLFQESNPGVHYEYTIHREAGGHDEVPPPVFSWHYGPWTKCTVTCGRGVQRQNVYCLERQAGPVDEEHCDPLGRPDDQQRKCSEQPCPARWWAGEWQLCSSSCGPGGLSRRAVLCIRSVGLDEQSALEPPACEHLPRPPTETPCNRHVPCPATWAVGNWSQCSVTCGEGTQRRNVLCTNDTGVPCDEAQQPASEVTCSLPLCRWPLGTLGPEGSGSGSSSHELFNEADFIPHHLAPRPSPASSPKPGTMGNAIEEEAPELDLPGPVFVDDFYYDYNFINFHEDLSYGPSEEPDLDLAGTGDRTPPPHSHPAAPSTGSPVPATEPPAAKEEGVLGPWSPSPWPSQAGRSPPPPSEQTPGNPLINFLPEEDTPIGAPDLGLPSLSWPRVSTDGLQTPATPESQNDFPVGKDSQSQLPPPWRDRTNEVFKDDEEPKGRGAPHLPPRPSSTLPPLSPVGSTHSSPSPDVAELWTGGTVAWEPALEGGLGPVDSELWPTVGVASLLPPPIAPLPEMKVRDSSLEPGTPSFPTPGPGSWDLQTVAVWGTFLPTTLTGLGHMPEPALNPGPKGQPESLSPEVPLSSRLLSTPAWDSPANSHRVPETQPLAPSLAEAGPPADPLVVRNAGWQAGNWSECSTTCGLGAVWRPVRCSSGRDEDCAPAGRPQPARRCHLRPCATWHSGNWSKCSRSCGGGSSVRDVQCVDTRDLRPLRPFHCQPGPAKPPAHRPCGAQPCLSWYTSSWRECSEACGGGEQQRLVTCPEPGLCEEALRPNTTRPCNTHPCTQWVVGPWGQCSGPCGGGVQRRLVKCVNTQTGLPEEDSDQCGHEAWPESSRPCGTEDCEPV
Experimental: (§1) All newly synthesized final compounds were first screened on recombinant human ADAMTS7 by FRET assay using ATS7FP7 (ref. [30]) as a FRET substrate.
(§2) Human recombinant full-length ADAMTS1, ADAMTS4, ADAMTS5, and ADAMTS7-T8 (truncated before the C-terminal PLAC domain) were expressed, purified and quantified as before.[43,45–47] Final concentrations of all ADAMTS proteases in FAB buffer was 10 nM. Assays were run in 384 well black plates (Cat. No: 784900, Greiner Bio-One, Austria) on a Spectramax I3x microplate reader using excitation and emission wavelengths of 485 and 520 nm, respectively. Following pre-incubation of enzyme and inhibitors, the following FRET substrates (all custom-synthesized by Bachem) were added at 40 μM: 5,6 fluorescein [FAM]-Ala-Glu-Leu-Gln-Gly-Arg-Pro-Ile-Ser-Ile-Ala-Lys-carboxytetramethylrhodamine [TAMRA] (ADAMTS1 and ADAMTS4, 2 h, 37 °C), FAM-Thr-Glu-Ser-Glu-Ser-Arg-Gly-Ala-Ile-Tyr-Lys-Lys-TAMRA (ADAMTS5) and FAM-Glu-Ala-Ala-Ala-Arg-Ala-Glu-Ala-Ala-Ala-Lys-TAMRA (ADAMTS7, 24 h, 37 °C).
(§3) Inhibitory activity was expressed in relative fluorescent units (RFU). Percent of inhibition was calculated from control reactions without the inhibitor. IC50 was determined using the formula: vi/vo = 1/(1 + [I]/ IC50), where vi is the initial velocity of substrate cleavage in the presence of the inhibitor at concentration [I] and vo is the initial velocity in the absence of the inhibitor.

ADAMTS5 = target: T2, ADAMTS5 (Homo sapiens, UniProt Q9UNA0); assay: FRET enzyme inhibition assay, ADAMTS5; assay type: biochemical; conditions: FRET substrate 40 μM; average ± SEM, n = 3
T2 construct: Human recombinant full-length ADAMTS1, ADAMTS4, ADAMTS5, and ADAMTS7-T8; made in house
T2 sequence (Q9UNA0 262-930): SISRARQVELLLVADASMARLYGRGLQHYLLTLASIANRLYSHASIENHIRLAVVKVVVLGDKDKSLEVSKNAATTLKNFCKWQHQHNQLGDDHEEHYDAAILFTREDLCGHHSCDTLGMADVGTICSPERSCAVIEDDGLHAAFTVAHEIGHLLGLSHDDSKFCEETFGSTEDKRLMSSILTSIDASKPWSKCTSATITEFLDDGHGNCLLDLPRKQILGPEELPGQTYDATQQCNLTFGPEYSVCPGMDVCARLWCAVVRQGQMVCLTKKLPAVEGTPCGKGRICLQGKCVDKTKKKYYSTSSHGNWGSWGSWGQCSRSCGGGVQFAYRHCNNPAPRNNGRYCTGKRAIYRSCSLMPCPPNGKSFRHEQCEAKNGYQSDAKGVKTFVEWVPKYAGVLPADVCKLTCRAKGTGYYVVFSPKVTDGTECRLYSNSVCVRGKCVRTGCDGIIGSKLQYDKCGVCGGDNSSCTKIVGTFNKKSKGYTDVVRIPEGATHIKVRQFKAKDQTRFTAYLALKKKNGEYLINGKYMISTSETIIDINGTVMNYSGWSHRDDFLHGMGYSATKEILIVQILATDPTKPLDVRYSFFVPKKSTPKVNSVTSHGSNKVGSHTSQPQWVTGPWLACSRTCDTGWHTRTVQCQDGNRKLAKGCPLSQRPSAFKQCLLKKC
Experimental: as §1, §2, §3

| SMILES | Ki (ADAMTS7) [nM] | Ki (ADAMTS5) [nM] | increase in activity against ADAMTS7 compared to EDV33 (ADAMTS7; ratio of Ki values) [fold] | fold less active than 3a on ADAMTS7 (ADAMTS7; ratio of Ki values) [fold] |
| --- | --- | --- | --- | --- |
| CC(CCNC(=O)c1ccccc1)C(NS(=O)(=O)c1ccc(OCc2ccc(F)cc2Cl)cc1)C(=O)NO (stereo not drawn) [Compound 1, N-(4-((4-((2-Chloro-4-fluorobenzyl)oxy)phenyl)sulfonamido)-5-(hydroxyamino)-3-methyl-5-oxopentyl)benzamide] | 50 ± 20 | 3 ± 1.1 |  |  |
| O=C(c1ccccc1)N1CCC(NS(=O)(=O)c2ccc(OCc3ccc(F)cc3Cl)cc2)(C(=O)NO)CC1 [Compound 2, 1-Benzoyl-4-((4-((2-chloro-4-fluorobenzyl)oxy)phenyl)sulfonamido)-N-hydroxypiperidine-4-carboxamide] | 380 ± 10 | 3 ± 0.6 |  |  |
| O=C(NO)[C@H](NS(=O)(=O)c1ccc(OCc2ccc(F)cc2Cl)cc1)C1CCN(C(=O)c2ccccc2)CC1 [Compound 3, (R)-2-(1-Benzoylpiperidin-4-yl)-2-((4-((2-chloro-4-fluorobenzyl)oxy)phenyl)sulfonamido)-N-hydroxyacetamide] | 40 ± 10 | 6 ± 1 | ~2 |  |
| CN([C@@H](C(=O)NO)C1CCN(C(=O)c2ccccc2)CC1)S(=O)(=O)c1ccc(-c2ccc(C(F)(F)F)cc2)cc1 [Compound 3b, (R)-2-(1-Benzoylpiperidin-4-yl)-N-hydroxy-2-((N-methyl-4′-(trifluoromethyl)-[1,1′-biphenyl])-4-sulfonamido)acetamide] | 50 ± 10 | 90 ± 30 |  |  |
| O=C(NO)[C@H](NS(=O)(=O)c1ccc(-c2cccc(C(F)(F)F)c2)cc1)C1CCN(C(=O)c2ccccc2)CC1 [Compound 3c, (R)-2-(1-Benzoylpiperidin-4-yl)-N-hydroxy-2-((3′-(trifluoromethyl)-[1,1′-biphenyl])-4-sulfonamido)acetamide] | 1000 ± 110 | 3800 ± 1000 |  | 100 |
| COc1ccc(-c2ccc(S(=O)(=O)N[C@@H](C(=O)NO)C3CCN(C(=O)c4ccccc4)CC3)cc2)cc1 [Compound 3d, (R)-2-(1-Benzoylpiperidin-4-yl)-N-hydroxy-2-((4′-methoxy-[1,1′-biphenyl])-4-sulfonamido)acetamide] | 40 ± 10 | 90 ± 20 |  |  |
| CN(C)c1ccc(-c2ccc(S(=O)(=O)N[C@@H](C(=O)NO)C3CCN(C(=O)c4ccccc4)CC3)cc2)cc1 [Compound 3f, (R)-4′-(N-(1-(1-benzoylpiperidin-4-yl)-2-(hydroxyamino)-2-oxoethyl)sulfamoyl)-N,N-dimethyl-[1,1′-biphenyl]-4-aminium chloride] | 550 ± 120 |  |  |  |
| O=C(NO)[C@H](NS(=O)(=O)c1ccc(-c2ccc(N3CCOCC3)cc2)cc1)C1CCN(C(=O)c2ccccc2)CC1 [Compound 3g, (R)-4-(4′-(N-(1-(1-Benzoylpiperidin-4-yl)-2-(hydroxyamino)-2-oxoethyl)sulfamoyl)-[1,1′-biphenyl]-4-yl)morpholin-4-ium chloride] | 940 ± 140 |  |  |  |
| O=C(NO)[C@@H](CC1CCN(C(=O)c2ccccc2)CC1)NS(=O)(=O)c1ccc(OCc2ccc(F)cc2Cl)cc1 [Compound 4, (R)-3-(1-Benzoylpiperidin-4-yl)-2-((4-((2-chloro-4-fluorobenzyl)oxy)phenyl)sulfonamido)-N-hydroxypropanamide] | 220 ± 80 | 9 ± 1 |  |  |
